Results on 1 compound are retold here after patent US4048334A, “Active derivatives of methylamino in therapeutic compositions and methods of use” (priority 1974, dated 1977).

Experiment [1] relates to neuroleptic-induced catatonia. As to the kind of experiment: Suppression of neuroleptic-induced catatonia (curative treatment, prochlorperazine). The note with it: for catatonia score (5 rats per batch): 5 mg/kg oral. The format is in vivo, rat (male, OFA strain). The method, then:
b. Suppression of neuroleptic-induced catatonia
Batches of 5 male rats of the OFA strain were given 12.5 mg/kg of prochlorperazine by intraperitoneal route. Fifty-five minutes later, an oral dose in aqueous solution of the compound to be studied was administered to all the animals with the exception of the control group. The progress of the catatonia was noted following the same scale as that used in the tests described above.

Experiment [2] can be described thus: Spasmolytic / cholinolytic (anticholinergic) activity in vivo or unspecified. As to conditions: at antiparkinsonian doses well below the toxic dose.

For the compound `CCCC(N)(CCC)CCC` [Compound 1], the “catatonia score (5 rats per batch)” value came to 3 in experiment [1] (1h30 after prochlorperazine); 0 in experiment [1] (2h30 after prochlorperazine); 0 in experiment [1] (3h30 after prochlorperazine); 0 in experiment [1] (3h after prochlorperazine); 0 in experiment [1] (4h after prochlorperazine); 0 in experiment [1] (5h after prochlorperazine). For the same compound, the “rapidity of action against neuroleptic-induced catatonia” value in experiment [1] (5 mg/kg versus amantadine 80 mg/kg) was “acts against neuroleptic-induced catatonia more rapidly than does a dose of 80 mg/kg of amantadine”. In addition, in experiment [1] (versus amantadine), the “times more active than amantadine, neuroleptic-induced catatonia, curative treatment” value is listed as “at least 16 times”. The “spasmolytic activity in vivo” value in experiment [2] is on record as “non-existent”.
